In brackets after ≈: the same amount, converted by molar mass. Read-outs that look alike come from different tables or passages of the source.
Experiments:
Type in all cases: cell-based, Staphylococcus aureus
MRSA and MSSA [1] = experiment: Enhancing activity for the antibacterial activity of oxacillin by various gallates (agar plate dilution method, oxacillin MIC); conditions: MRSA and MSSA
Method: (§1) According to the agar plate dilution method defined by Japan Society of Chemotherapy, MIC (Minimum inhibitory concentration) was determined. CAMHA was prepared by adding 50 mg/l of Ca-ion, 25 mg/l of Mg-ion, and 2% of NaCl to Mueller-Hinton II Agar (MHA), and it was used as a medium for use in the measurement of sensitivity. The bacterial liquid was incubated at 37° C. overnight and diluted to 10^6 CFU/ml with saline.

MRSA and MSSA [2] = experiment: Antibacterial activity of gallic acid, various gallates and multivalent phenol derivatives alone (agar plate dilution method, MIC); conditions: for MIC50 / MIC: Staphylococcus aureus
In short: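 Each compound tested alone. Bacteria cultured overnight at 37 °C, then brought to 10^6 CFU/ml in saline and tested on MHA II with added Ca-ion (50 mg/l), Mg-ion (25 mg/l) and 2% NaCl. MIC read by the Japan Society of Chemotherapy agar dilution method.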

[3] = tested on: MRSA COL and MRSA Strain No. 5; experiment: Potentiating effect of various gallates for antibacterial activity of oxacillin (MIC by broth microdilution method and FIC); conditions: for FIC value: combination with oxacillin
In short: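 Broth microdilution MIC per Japan Society of Chemotherapy method in cation-adjusted Mueller-Hinton broth (50 mg/l Ca, 25 mg/l Mg, 2% NaCl); inoculum 5×10^5 CFU/well from overnight 37° C culture. Gallate–oxacillin combinations evaluated by FIC.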

MRSA = experiment: Potentiating effect of isoamyl gallate for the antibacterial activity of other β-lactams (agar plate dilution method, MIC)
Method: as §1

[4] = COL, compound alone, read-out: MIC
[5] = MRSA #1, compound alone, read-out: MIC
[6] = MRSA #2, compound alone, read-out: MIC
[7] = MRSA #3, compound alone, read-out: MIC
[8] = MRSA #4, compound alone, read-out: MIC
[9] = MRSA #5, compound alone, read-out: MIC
[10] = MRSA #6, compound alone, read-out: MIC
[11] = MRSA #7, compound alone, read-out: MIC
[12] = MRSA #8, compound alone, read-out: MIC
[13] = MRSA #9, compound alone, read-out: MIC
[14] = MRSA #10, compound alone, read-out: MIC
[15] = MRSA #12, compound alone, read-out: MIC
[16] = MRSA #16, compound alone, read-out: MIC
[17] = MRSA #17, compound alone, read-out: MIC
[18] = MRSA #18, compound alone, read-out: MIC
[19] = MRSA #20, compound alone, read-out: MIC
[20] = MRSA #21, compound alone, read-out: MIC
[21] = MRSA #22, compound alone, read-out: MIC
[22] = MRSA #24, compound alone, read-out: MIC
[23] = MSSA #1003, compound alone, read-out: MIC
[24] = MSSA #1010, compound alone, read-out: MIC
[25] = MSSA #1020, compound alone, read-out: MIC
[26] = MSSA #1023, compound alone, read-out: MIC
[27] = MSSA #1029, compound alone, read-out: MIC
[28] = MSSA #1032, compound alone, read-out: MIC
[29] = RN4220, with isoamyl gallate 25 mg/ml

## CC(C)COC(=O)c1cc(O)c(O)c(O)c1 [isoButyl gallate, isobutyl gallate]
MRSA and MSSA [1]
  effect of combination use with oxacillin (words): potent effects of the combination use
MRSA and MSSA [2]
  MIC50: 125 µg/mL (≈ 553 µM)
MRSA and MSSA [2]; ATCC 6538 / MRSA / MSSA
  MIC: 125 µg/mL (≈ 553 µM)
MRSA and MSSA [2]; [4]
  MIC: 125 µg/mL (≈ 553 µM)
MRSA and MSSA [2]; [5]
  MIC: 125 µg/mL (≈ 553 µM)
MRSA and MSSA [2]; [6]
  MIC: 62.5 µg/mL (≈ 276 µM)
MRSA and MSSA [2]; [7]
  MIC: 125 µg/mL (≈ 553 µM)
MRSA and MSSA [2]; [8]
  MIC: 125 µg/mL (≈ 553 µM)
MRSA and MSSA [2]; [9]
  MIC: 125 µg/mL (≈ 553 µM)
MRSA and MSSA [2]; [10]
  MIC: 62.5 µg/mL (≈ 276 µM)
MRSA and MSSA [2]; [11]
  MIC: 125 µg/mL (≈ 553 µM)
MRSA and MSSA [2]; [12]
  MIC: 125 µg/mL (≈ 553 µM)
MRSA and MSSA [2]; [13]
  MIC: 62.5 µg/mL (≈ 276 µM)
MRSA and MSSA [2]; [14]
  MIC: 62.5 µg/mL (≈ 276 µM)
MRSA and MSSA [2]; [15]
  MIC: 125 µg/mL (≈ 553 µM)
MRSA and MSSA [2]; [16]
  MIC: 125 µg/mL (≈ 553 µM)
MRSA and MSSA [2]; [17]
  MIC: 125 µg/mL (≈ 553 µM)
MRSA and MSSA [2]; [18]
  MIC: 125 µg/mL (≈ 553 µM)
MRSA and MSSA [2]; [19]
  MIC: 125 µg/mL (≈ 553 µM)
MRSA and MSSA [2]; [20]
  MIC: 125 µg/mL (≈ 553 µM)
MRSA and MSSA [2]; [21]
  MIC: 125 µg/mL (≈ 553 µM)
MRSA and MSSA [2]; [22]
  MIC: 125 µg/mL (≈ 553 µM)
MRSA and MSSA [2]; [23]
  MIC: 125 µg/mL (≈ 553 µM)
MRSA and MSSA [2]; [24]
  MIC: 125 µg/mL (≈ 553 µM)
MRSA and MSSA [2]; [25]
  MIC: 125 µg/mL (≈ 553 µM)
MRSA and MSSA [2]; [26]
  MIC: 125 µg/mL (≈ 553 µM)
MRSA and MSSA [2]; [27]
  MIC: 62.5 µg/mL (≈ 276 µM)
MRSA and MSSA [2]; [28]
  MIC: 125 µg/mL (≈ 553 µM)
[3]; COL Strain and Strain No. 5
  effect of the combination use with oxacillin by FIC values: most potent effect of the combination use
[3]; MRSA COL
  FIC value: 0.129
[3]; MRSA Strain No. 5
  FIC value: 0.266

## CCCCCOC(=O)c1cc(O)c(O)c(O)c1 [Pentyl gallate, n-pentyl gallate]
MRSA and MSSA [1]
  effect of combination use with oxacillin (words): excellent potentiating effect
MRSA and MSSA [2]; MRSA #2
  MIC alone: 62.5 µg/mL (≈ 260 µM)
MRSA and MSSA [2]
  MIC50: 62.5 µg/mL (≈ 260 µM)
MRSA and MSSA [2]; ATCC 6538 / MRSA / MSSA, read-out: MIC alone
  MIC: 62.5 µg/mL (≈ 260 µM)
MRSA and MSSA [2]; COL, read-out: MIC alone
  MIC: 62.5 µg/mL (≈ 260 µM)
MRSA and MSSA [2]; MRSA #1, read-out: MIC alone
  MIC: 62.5 µg/mL (≈ 260 µM)
MRSA and MSSA [2]; MRSA #2, read-out: MIC alone
  MIC: 67.5 µg/mL (≈ 281 µM)
MRSA and MSSA [2]; MRSA #3, read-out: MIC alone
  MIC: 62.5 µg/mL (≈ 260 µM)
MRSA and MSSA [2]; MRSA #4, read-out: MIC alone
  MIC: 62.5 µg/mL (≈ 260 µM)
MRSA and MSSA [2]; MRSA #5, read-out: MIC alone
  MIC: 62.5 µg/mL (≈ 260 µM)
MRSA and MSSA [2]; MRSA #6, read-out: MIC alone
  MIC: 62.5 µg/mL (≈ 260 µM)
MRSA and MSSA [2]; MRSA #7, read-out: MIC alone
  MIC: 62.5 µg/mL (≈ 260 µM)
MRSA and MSSA [2]; MRSA #8, read-out: MIC alone
  MIC: 62.5 µg/mL (≈ 260 µM)
MRSA and MSSA [2]; MRSA #9, read-out: MIC alone
  MIC: 62.5 µg/mL (≈ 260 µM)
MRSA and MSSA [2]; MRSA #10, read-out: MIC alone
  MIC: 62.5 µg/mL (≈ 260 µM)
MRSA and MSSA [2]; MRSA #12, read-out: MIC alone
  MIC: 62.5 µg/mL (≈ 260 µM)
MRSA and MSSA [2]; MRSA #16, read-out: MIC alone
  MIC: 62.5 µg/mL (≈ 260 µM)
MRSA and MSSA [2]; MRSA #17, read-out: MIC alone
  MIC: 62.5 µg/mL (≈ 260 µM)
MRSA and MSSA [2]; MRSA #18, read-out: MIC alone
  MIC: 62.5 µg/mL (≈ 260 µM)
MRSA and MSSA [2]; MRSA #20, read-out: MIC alone
  MIC: 62.5 µg/mL (≈ 260 µM)
MRSA and MSSA [2]; MRSA #21, read-out: MIC alone
  MIC: 62.5 µg/mL (≈ 260 µM)
MRSA and MSSA [2]; MRSA #22, read-out: MIC alone
  MIC: 62.5 µg/mL (≈ 260 µM)
MRSA and MSSA [2]; MRSA #24, read-out: MIC alone
  MIC: 62.5 µg/mL (≈ 260 µM)
MRSA and MSSA [2]; MSSA #1003, read-out: MIC alone
  MIC: 62.5 µg/mL (≈ 260 µM)
MRSA and MSSA [2]; MSSA #1010, read-out: MIC alone
  MIC: 62.5 µg/mL (≈ 260 µM)
MRSA and MSSA [2]; MSSA #1020, read-out: MIC alone
  MIC: 62.5 µg/mL (≈ 260 µM)
MRSA and MSSA [2]; MSSA #1023, read-out: MIC alone
  MIC: 62.5 µg/mL (≈ 260 µM)
MRSA and MSSA [2]; MSSA #1029, read-out: MIC alone
  MIC: 62.5 µg/mL (≈ 260 µM)
MRSA and MSSA [2]; MSSA #1032, read-out: MIC alone
  MIC: 62.5 µg/mL (≈ 260 µM)
[3]; MRSA COL
  FIC value: 0.375
[3]; MRSA Strain No. 5
  FIC value: 0.563

## CC(C)CCOC(=O)c1cc(O)c(O)c(O)c1 [isoAmyl gallate, Isoamyl gallate]
MRSA and MSSA [1]
  effect of combination use with oxacillin (words): potent effects of the combination use
MRSA and MSSA [2]
  MIC50: 62.5 µg/mL (≈ 260 µM)
MRSA and MSSA [2]; ATCC 6538 / MRSA / MSSA
  MIC: 62.5 µg/mL (≈ 260 µM)
MRSA and MSSA [2]; [4]
  MIC: 62.5 µg/mL (≈ 260 µM)
MRSA and MSSA [2]; [5]
  MIC: 62.5 µg/mL (≈ 260 µM)
MRSA and MSSA [2]; [6]
  MIC: 62.5 µg/mL (≈ 260 µM)
MRSA and MSSA [2]; [7]
  MIC: 62.5 µg/mL (≈ 260 µM)
MRSA and MSSA [2]; [8]
  MIC: 62.5 µg/mL (≈ 260 µM)
MRSA and MSSA [2]; [9]
  MIC: 62.5 µg/mL (≈ 260 µM)
MRSA and MSSA [2]; [10]
  MIC: 62.5 µg/mL (≈ 260 µM)
MRSA and MSSA [2]; [11]
  MIC: 62.5 µg/mL (≈ 260 µM)
MRSA and MSSA [2]; [12]
  MIC: 62.5 µg/mL (≈ 260 µM)
MRSA and MSSA [2]; [13]
  MIC: 62.5 µg/mL (≈ 260 µM)
MRSA and MSSA [2]; [14]
  MIC: 31.3 µg/mL (≈ 130 µM)
MRSA and MSSA [2]; [15]
  MIC: 62.5 µg/mL (≈ 260 µM)
MRSA and MSSA [2]; [16]
  MIC: 62.5 µg/mL (≈ 260 µM)
MRSA and MSSA [2]; [17]
  MIC: 62.5 µg/mL (≈ 260 µM)
MRSA and MSSA [2]; [18]
  MIC: 62.5 µg/mL (≈ 260 µM)
MRSA and MSSA [2]; [19]
  MIC: 62.5 µg/mL (≈ 260 µM)
MRSA and MSSA [2]; [20]
  MIC: 62.5 µg/mL (≈ 260 µM)
MRSA and MSSA [2]; [21]
  MIC: 125 µg/mL (≈ 520 µM)
MRSA and MSSA [2]; [22]
  MIC: 125 µg/mL (≈ 520 µM)
MRSA and MSSA [2]; [23]
  MIC: 125 µg/mL (≈ 520 µM)
MRSA and MSSA [2]; [24]
  MIC: 62.5 µg/mL (≈ 260 µM)
MRSA and MSSA [2]; [25]
  MIC: 62.5 µg/mL (≈ 260 µM)
MRSA and MSSA [2]; [26]
  MIC: 62.5 µg/mL (≈ 260 µM)
MRSA and MSSA [2]; [27]
  MIC: 62.5 µg/mL (≈ 260 µM)
MRSA and MSSA [2]; [28]
  MIC: 62.5 µg/mL (≈ 260 µM)
MRSA; [29]
  Ampicillin MIC: 63 µg/mL
  Cefapirin MIC: 63 µg/mL
MRSA; with penicillin G, cefoxitin, ampicillin, and cefapirin
  effects of the combination use with other β-lactams: excellent effects of the combination use
[3]; MRSA COL
  FIC value: 0.25
[3]; MRSA Strain No. 5
  FIC value: 0.313

— US20060235076A1, “Medicinal composition for treating infection with drug-resistant staphylococcus aureus” (priority 2003, published 2006)
